These results are taken from ChEMBL document CHEMBL1201862, “PubChem BioAssay data set” (2004).

SMILES strings stand for the structures.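 Cultured in 96-well plates, cells were exposed to test compound for 48 hours across five concentrations. GI50 is the concentration that inhibits growth by half.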 Activity calls are given as the source filed them. Rule as the data show it: active = GI50 up to about 1.1 µM and inactive = higher.

Among the test systems are MDA-MB-435; HCC 2998; HOP-62; HCT-116; SK-MEL-5; SN12C; OVCAR-8; SF-268; Hs-578T; MCF7; OVCAR-5; 786-0; MOLT-4; SNB-75; A498; SF-295; UACC-257; UO-31; CCRF-CEM; HCT-15.
Assay in all cases: inhibition of tumour cell growth, NCI panel, 48 h

`CCOC(=O)N1CCN(Cc2cc(=O)n3ccc(C)cc3n2)CC1`: the GI50 with MDA-MB-435, with HCC 2998, with HOP-62, with HCT-116, in the assay with SK-MEL-5 and in the assay with SN12C was > 100 µM (inactive) throughout. Also, the GI50 in the assay with OVCAR-8, in the assay on SF-268, in the assay with Hs-578T, with MCF7, in the assay on OVCAR-5 and with 786-0 was > 100 µM (inactive) each time. Further, the GI50 in the assay with MOLT-4, in the assay with SNB-75, with A498, with SF-295, in the assay on UACC-257 and in the assay on UO-31 was > 100 µM (inactive) each time. Also, the GI50 in the assay with CCRF-CEM is > 100 µM (inactive); with HCT-15, greater than 100 µM.

Take `CCCCCCCCCCCC/C=C\CC[C@@H](O)[C@H](O)CC[C@H](O)[C@@H]1CC[C@@H](CCCCCCCC2=C[C@H](C)OC2=O)O1` [GIGANTRIONENIN]: the GI50 in the assay with MDA-MB-435 was 0.883 µM (active); in the assay with HCC 2998 it was 17.3 µM (inactive); in the assay with HOP-62 it was 4.1 µM (inactive); in the assay on HCT-116, 1.87 µM (inactive); in the assay with SK-MEL-5 it was 1.26 µM (inactive); in the assay on SN12C, 5.05 µM (inactive). The GI50 in the assay on OVCAR-8 was 2.64 µM (inactive); in the assay on SF-268, 4.42 µM (inactive); in the assay with Hs-578T it was 3.03 µM (inactive); with MCF7 it was 2.28 µM (inactive); in the assay on OVCAR-5, 18.5 µM (inactive); with 786-0 it was 6.21 µM (inactive). The GI50 in the assay with MOLT-4 was 2.17 µM (inactive); in the assay on SNB-75, 7.66 µM (inactive); with A498, 5.56 µM (inactive); with SF-295, 1.93 µM (inactive); in the assay on UACC-257, 0.0546 µM (active); with UO-31, 1.71 µM (inactive). The GI50 was 1.44 µM (inactive) in the assay on CCRF-CEM and 3.85 µM in the assay with HCT-15.

Consider `C/C(Cl)=N/OC(=O)Nc1ccc(S(N)(=O)=O)c(C)c1`, for which the GI50 with MDA-MB-435 is 15.1 µM (inactive); in the assay with HCC 2998, 18.4 µM (inactive); in the assay with HOP-62, 19.9 µM (inactive); in the assay on HCT-116, 12 µM (inactive); in the assay with SK-MEL-5 it was 12.9 µM (inactive); in the assay on SN12C it was 13.4 µM (inactive). The GI50 in the assay on OVCAR-8 is 24.7 µM (inactive); with SF-268, 26.1 µM (inactive); with Hs-578T it was 43.4 µM (inactive); in the assay on MCF7, 5.38 µM (inactive); in the assay with OVCAR-5, 18.3 µM (inactive); with 786-0 it was 2.03 µM (inactive). Further, the GI50 is 1.5 µM (inactive) with MOLT-4; 19 µM (inactive) with SNB-75; 18.2 µM (inactive) in the assay with A498; 21 µM (inactive) in the assay on SF-295; 14.7 µM (inactive) in the assay on UACC-257; 14.9 µM (inactive) in the assay with UO-31. Besides, the values for the GI50 with CCRF-CEM and with HCT-15 were 1.07 µM (active) and 2.02 µM, respectively.

For `CN1CCCN2CCN(C)CCN(CC1)CC2`, the GI50 in the assay on MDA-MB-435, in the assay on HCC 2998, with HOP-62, in the assay on HCT-116, in the assay on SK-MEL-5 and in the assay with SN12C was > 100 µM (inactive) throughout. Also, the GI50 in the assay on OVCAR-8, in the assay on SF-268, in the assay with Hs-578T, in the assay with MCF7, in the assay on OVCAR-5 and with 786-0 was > 100 µM (inactive) each time. Moreover, the GI50 with MOLT-4, with SNB-75, with A498, with SF-295, in the assay with UACC-257 and in the assay with UO-31 was > 100 µM (inactive) each time. Also, the GI50 in the assay with CCRF-CEM is > 100 µM (inactive); in the assay on HCT-15, greater than 100 µM.

For the molecule `O=[N+]([O-])C1=Cc2c(O)ccc(O)c2C2c3ccccc3NC12` (stereo not given), the GI50 in the assay on MDA-MB-435 is 14.7 µM (inactive); in the assay on HCC 2998, 7.52 µM (inactive); in the assay on HOP-62, 11.3 µM (inactive); with HCT-116 it was 9.16 µM (inactive); with SK-MEL-5 it was 12.8 µM (inactive); with SN12C it was 16.7 µM (inactive). Further, the GI50 in the assay on OVCAR-8 is 5.82 µM (inactive); in the assay on SF-268, 16.7 µM (inactive); in the assay on Hs-578T, 26.1 µM (inactive); in the assay on MCF7, 2.71 µM (inactive); in the assay with OVCAR-5 it was 16.1 µM (inactive); in the assay with 786-0, 12.1 µM (inactive). Besides, the GI50 is 3.18 µM (inactive) in the assay on MOLT-4; 22.4 µM (inactive) in the assay on SNB-75; 14.7 µM (inactive) in the assay with A498; 13.2 µM (inactive) with SF-295; 13.9 µM (inactive) with UACC-257; 5.33 µM (inactive) in the assay with UO-31. Also, the GI50 with CCRF-CEM was 3.88 µM (inactive); in the assay on HCT-15 it was 13 µM.

With `CC(C)(C)c1ccc2c(c1)CNCCNCc1cc(C(C)(C)C)ccc1OCC1(CO2)COc2ccc(C(C)(C)C)cc2CNCCNCc2cc(C(C)(C)C)ccc2OC1`, the GI50 is 0.271 µM (active) in the assay with MDA-MB-435; 0.335 µM (active) with HCC 2998; 1.66 µM (inactive) in the assay on HOP-62; 0.288 µM (active) in the assay with HCT-116; 1.23 µM (inactive) with SK-MEL-5; 0.404 µM (active) in the assay with SN12C. Also, the GI50 is 0.935 µM (active) with OVCAR-8; 1.78 µM (inactive) in the assay on SF-268; 1.06 µM (active) in the assay with Hs-578T; 0.461 µM (active) with MCF7; 1.72 µM (inactive) with OVCAR-5; 0.25 µM (active) in the assay with 786-0. Further, the GI50 with MOLT-4 was 0.225 µM (active); in the assay with SNB-75, 1.51 µM (inactive); with A498, 0.857 µM (active); with SF-295, 0.968 µM (active); with UACC-257 it was 1.54 µM (inactive); in the assay on UO-31, 1.8 µM (inactive). Further, the GI50 with CCRF-CEM is 0.2 µM (active); in the assay with HCT-15 it was 0.931 µM.

In the case of `COC(=O)c1ccc2c(c1)S/C(=C/c1ccc3ccc4cccc5ccc1c3c45)S2`, the GI50 with MDA-MB-435 was 26.6 µM (inactive); with HCC 2998, 89.3 µM (inactive); in the assay on HOP-62 it was 37.1 µM (inactive); in the assay on HCT-116, 95.9 µM (inactive); in the assay with SK-MEL-5 it was > 100 µM (inactive); in the assay with SN12C it was > 100 µM (inactive). Also, the GI50 with OVCAR-8 was 31.6 µM (inactive); in the assay with SF-268, 32.1 µM (inactive); with Hs-578T, 37.9 µM (inactive); with MCF7 it was 33.3 µM (inactive); in the assay on OVCAR-5, > 100 µM (inactive); in the assay with 786-0 it was > 100 µM (inactive). Besides, the GI50 in the assay with MOLT-4 is > 100 µM (inactive); in the assay with SNB-75, 17.3 µM (inactive); in the assay on A498, 31.6 µM (inactive); in the assay on SF-295, 40.8 µM (inactive); in the assay on UACC-257, > 100 µM (inactive); in the assay on UO-31 it was > 100 µM (inactive). Further, the figures for the GI50 with CCRF-CEM and in the assay on HCT-15 were 34.5 µM (inactive) and 28.1 µM, respectively.
